Activity calls are given as the source filed them.
Assays:
[1] = target: Heat shock protein HSP 90-alpha (Homo sapiens, UniProt P07900); assay type: functional, organism-based
Perilipin-1/ABHD5 = Perilipin-1/ABHD5 (Homo sapiens, UniProt O60240+Q8WTS1); experiment: Luminescence-based biochemical high throughput dose response assay for inhibitors of the interaction of the lipase co-activator protein, abhydrolase domain containing 5 (ABHD5) with perilipin-1 (PLIN1) (2K validation set). [Related pubchem assays (depositor defined):AID493027, AID493057]
[2] = target: 1-acylglycerol-3-phosphate O-acyltransferase ABHD5/Perilipin-5 (Homo sapiens, UniProt Q00G26+Q8WTS1); experiment: Luminescence-based biochemical high throughput dose response assay for inhibitors of the interaction of the lipase co-activator protein, abhydrolase domain containing 5 (ABHD5) with perilipin-5 (MLDP; PLIN5) (2K validation set). [Related pubchem assays (depositor defined):AID493035, AID493241]
[3] = NIH-3T3 fibroblast cytotoxicity, dose response, cytotoxicity control, cell-based, fluorescence, Alamar Blue, secondary assay (AID 2327); assay type: functional;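 also: NIH-3T3 mouse fibroblasts cultured with fluconazole at 8 µg/mL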
[4] = target: ATP-dependent molecular chaperone HSP82 (Candida albicans (strain WO-1) (Yeast), UniProt C4YTQ8); experiment: steroid-induced GRE reporter decrease in yeast – S. cerevisiae, luminescence, Hsp90 inhibitor project, dose response (AID 2400); assay type: functional, cell-based;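 also: beta-galactosidase luminescence from glucocorticoid response element reporter as proxy for Hsp90 function; inhibitor potency where signal loss means Hsp90 inhibition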
[5] = target: T1, Serine/threonine-protein phosphatase (Candida dubliniensis (strain CD36 / CBS 7987 / NCPF 3949 / NRRLY-17841) (Yeast), UniProt B9W6M3); experiment: blockers of CaCl2-induced CDRE-lacZ signaling – S. cerevisiae, luminescence, secondary, dose response (AID 2388); assay type: functional, cell-based;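 also: yeast reporter cells carrying a calcineurin-responsive lacZ construct stimulated with calcium chloride; luminescent beta-galactosidase reporter signal in whole cells rather than isolated phosphatase activity; potency for inhibition where a drop in reporter signal means calcineurin blockade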
T1 sequence (B9W6M3 whole entry): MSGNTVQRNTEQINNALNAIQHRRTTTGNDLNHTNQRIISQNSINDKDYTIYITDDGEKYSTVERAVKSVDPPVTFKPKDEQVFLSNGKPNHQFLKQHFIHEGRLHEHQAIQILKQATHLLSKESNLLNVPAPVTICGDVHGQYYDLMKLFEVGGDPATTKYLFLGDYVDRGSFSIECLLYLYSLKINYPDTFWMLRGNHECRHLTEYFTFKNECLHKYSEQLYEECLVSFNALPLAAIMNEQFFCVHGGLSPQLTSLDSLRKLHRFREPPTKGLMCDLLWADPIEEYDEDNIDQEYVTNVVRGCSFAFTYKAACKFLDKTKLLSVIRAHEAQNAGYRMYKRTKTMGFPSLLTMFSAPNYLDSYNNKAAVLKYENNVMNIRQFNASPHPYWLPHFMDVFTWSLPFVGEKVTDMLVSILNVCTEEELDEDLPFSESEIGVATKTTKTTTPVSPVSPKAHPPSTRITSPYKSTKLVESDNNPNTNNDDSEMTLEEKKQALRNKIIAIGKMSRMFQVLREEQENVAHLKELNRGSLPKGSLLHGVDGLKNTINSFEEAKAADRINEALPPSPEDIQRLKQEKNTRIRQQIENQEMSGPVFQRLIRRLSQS

[6] = Cytotoxicity screening for potential Inhibitors of Bacterial Capsule Biogenesis. [Related pubchem assays (depositor defined):AID488970]; assay type: functional
[7] = fluconazole-exposed Candida albicans growth modulators – fluorescence, retest, confirmation (AID 2467); assay type: functional, cell-based
[8] = target: Neurotensin receptor type 1 (Homo sapiens, UniProt P30989); assay type: functional;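 also: Image-based confirmatory dose-response assay measuring agonist activity at NTR1; NTR1-expressing U2OS osteosarcoma cells imaged for beta-arrestin GFP spot formation; agonist potency where compounds increase beta-arrestin recruitment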
Prothrombin = Prothrombin (Homo sapiens, UniProt P00734); experiment: Thrombin 1536 HTS Dose Response Confirmation. [Related pubchem assays: 1046 (Thrombin 1536 HTS; hits were confirmed in this assay)]; assay type: functional
[9] = target: T2, Voltage-gated N-type calcium channel alpha-1B subunit/Amyloid beta A4 precursor protein-binding family A member 1 (Homo sapiens, UniProt Q00975+Q02410); experiment: disruptors of Mint-PDZ/N-type channel peptide interaction – biochemical, HTRF, set 2, SAR follow-up (AID 434980); assay type: functional
[10] = target: T2, Voltage-gated N-type calcium channel alpha-1B subunit/Amyloid beta A4 precursor protein-binding family A member 1; experiment: disruptors of Mint-PDZ/N-type channel peptide interaction – biochemical, HTRF, SAR follow-up (AID 2489); assay type: functional
[11] = target: Eukaryotic translation initiation factor 4E (Mus musculus, UniProt P63073); experiment: blockers of eIF4G binding by eIF4E – biochemical, TR-FRET, dose response (AID 855); assay type: functional;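 also: potency for disrupting eIF4E binding to eIF4GI seen as loss of FRET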
[12] = target: Potassium voltage-gated channel subfamily KQT member 2 (Rattus norvegicus, UniProt O88943); experiment: potentiation of rat KCNQ2 current – cell-based, retigabine-insensitive compounds, dose response (AID 2654); assay type: functional
Coagulation factor XII = target: T3, Coagulation factor XII (Homo sapiens, UniProt P00748); experiment: activated coagulation factor XII inhibitor potency, concentration-effect curve, cell-free (AID 716); assay type: functional
T3 sequence (P00748 whole entry): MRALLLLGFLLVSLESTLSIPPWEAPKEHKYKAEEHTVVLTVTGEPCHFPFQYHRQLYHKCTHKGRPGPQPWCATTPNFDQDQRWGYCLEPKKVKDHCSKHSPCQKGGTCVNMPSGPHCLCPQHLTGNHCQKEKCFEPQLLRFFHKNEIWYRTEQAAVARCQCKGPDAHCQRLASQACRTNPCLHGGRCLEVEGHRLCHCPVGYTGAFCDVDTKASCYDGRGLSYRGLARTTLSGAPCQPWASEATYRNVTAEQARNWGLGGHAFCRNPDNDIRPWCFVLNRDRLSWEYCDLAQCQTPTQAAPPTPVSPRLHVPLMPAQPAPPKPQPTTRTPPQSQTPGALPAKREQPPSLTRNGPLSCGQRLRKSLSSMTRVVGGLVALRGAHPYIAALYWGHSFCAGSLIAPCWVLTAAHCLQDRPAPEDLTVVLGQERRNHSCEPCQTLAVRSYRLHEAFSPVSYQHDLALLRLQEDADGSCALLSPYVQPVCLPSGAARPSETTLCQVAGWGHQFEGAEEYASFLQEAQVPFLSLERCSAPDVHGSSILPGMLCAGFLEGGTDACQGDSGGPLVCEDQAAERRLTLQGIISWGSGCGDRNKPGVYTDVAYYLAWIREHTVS

[13] = protection from phage-mediated lysis, alamar blue read-out – E. coli UTI89, K1F phage, bacterial capsule biogenesis inhibitors (AID 488966); assay type: functional
[14] = Vero E6 cell cytotoxicity, dose response, cytotoxicity control for non-replicating M. tuberculosis project, secondary assay (AID 492998); assay type: functional, VeroE6; details: Vero C1008
[15] = HepG2 cell cytotoxicity, dose response, cytotoxicity control for non-replicating M. tuberculosis project (AID 489018); assay type: functional; details: Mycobacterium tuberculosis
cells = assay type: functional
[16] = THP-1 cell cytotoxicity, dose response, cytotoxicity control for non-replicating M. tuberculosis project (AID 489025); assay type: functional
Saccharomyces cerevisiae = experiment: S. cerevisiae Caspase-1/ASC signal blockers IC50, NALP1 inhibitor project selectivity test (AID 488863); assay type: functional, organism-based
[17] = target: NACHT, LRR and PYD domains-containing protein 1 (Homo sapiens, UniProt Q9C000); experiment: NALP1 inhibitors in yeast, dose response, luminescent (AID 488860); assay type: functional
[18] = target: NACHT, LRR and PYD domains-containing protein 3 (Homo sapiens, UniProt Q96P20); experiment: NALP3 inhibitors in yeast, dose response, luminescent (AID 488799); assay type: functional
[19] = target: Voltage-dependent T-type calcium channel subunit alpha-1H (Homo sapiens, UniProt O95180); experiment: human CACNA1H calcium influx blockade – cell-based, synthetic library set 1, calcium flux (AID 493022); assay type: functional
[20] = target: Melanin-concentrating hormone receptor 1 (Homo sapiens, UniProt Q99705); experiment: Late-stage fluorescence-based counterscreen for antagonists of the G-protein coupled receptor 7 (GPR7): cell-based dose response assay to identify antagonists of the melanin-concentrating hormone receptor 1 (MCHR1). [Related pubchem assays (depositor defined):AID1861, AID1880, AID1952, AID2148, AID2251, AID2257, AID485339]; assay type: functional;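 also: stimulated with 30 nM MCH peptide agonist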
[21] = target: T4, Neuropeptides B/W receptor type 1 (Homo sapiens, UniProt P48145); experiment: human NPBW1 receptor blockade, IC50 – cell-based, fluorescence, dose response, late-stage follow-up (AID 463251); assay type: functional
T4 sequence (P48145 whole entry): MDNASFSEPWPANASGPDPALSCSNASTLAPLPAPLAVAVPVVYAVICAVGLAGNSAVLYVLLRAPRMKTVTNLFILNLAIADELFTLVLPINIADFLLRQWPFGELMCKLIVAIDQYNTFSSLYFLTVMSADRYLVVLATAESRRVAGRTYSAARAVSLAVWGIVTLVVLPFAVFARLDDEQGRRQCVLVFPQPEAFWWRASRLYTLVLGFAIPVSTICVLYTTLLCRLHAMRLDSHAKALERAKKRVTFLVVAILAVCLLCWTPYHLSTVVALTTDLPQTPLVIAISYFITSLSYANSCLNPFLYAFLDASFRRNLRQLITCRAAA

Trypanosoma cruzi = experiment: anti-trypanosomal activity in host cells – cell-based, plate reader, dry powder, set 3, dose response (AID 493197); assay type: functional
[22] = NIH/3T3 cell viability loss – mouse embryonic fibroblasts, dry powder, set 2, cytotoxicity control, dose response (AID 493247); assay type: functional, cell-based; details: Fibroblast
[23] = target: Female germline-specific tumor suppressor gld-1 (Caenorhabditis elegans, UniProt Q17339); experiment: blockers of GLD-1/TGE RNA complex formation – biochemical, fluorescence polarization, C. elegans, dose response (AID 2802);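 also: fluorescence polarization of labeled TGE RNA bound by purified gld-1 protein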
Protein Rev = Protein Rev (Human immunodeficiency virus type 1 group M subtype B (isolate HXB2)(HIV-1), UniProt P04618); experiment: blockers of HIV Rev/RRE RNA complex – biochemical, fluorescence polarization, HIV-1, dose response (AID 434976); set-up: species or system Human immunodeficiency virus 1
Chain of Protein Rev (P04618 whole entry): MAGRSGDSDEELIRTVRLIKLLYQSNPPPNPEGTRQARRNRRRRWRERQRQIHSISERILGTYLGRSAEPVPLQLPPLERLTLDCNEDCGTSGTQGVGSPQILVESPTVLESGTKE

T2 sequence (Q00975 whole entry): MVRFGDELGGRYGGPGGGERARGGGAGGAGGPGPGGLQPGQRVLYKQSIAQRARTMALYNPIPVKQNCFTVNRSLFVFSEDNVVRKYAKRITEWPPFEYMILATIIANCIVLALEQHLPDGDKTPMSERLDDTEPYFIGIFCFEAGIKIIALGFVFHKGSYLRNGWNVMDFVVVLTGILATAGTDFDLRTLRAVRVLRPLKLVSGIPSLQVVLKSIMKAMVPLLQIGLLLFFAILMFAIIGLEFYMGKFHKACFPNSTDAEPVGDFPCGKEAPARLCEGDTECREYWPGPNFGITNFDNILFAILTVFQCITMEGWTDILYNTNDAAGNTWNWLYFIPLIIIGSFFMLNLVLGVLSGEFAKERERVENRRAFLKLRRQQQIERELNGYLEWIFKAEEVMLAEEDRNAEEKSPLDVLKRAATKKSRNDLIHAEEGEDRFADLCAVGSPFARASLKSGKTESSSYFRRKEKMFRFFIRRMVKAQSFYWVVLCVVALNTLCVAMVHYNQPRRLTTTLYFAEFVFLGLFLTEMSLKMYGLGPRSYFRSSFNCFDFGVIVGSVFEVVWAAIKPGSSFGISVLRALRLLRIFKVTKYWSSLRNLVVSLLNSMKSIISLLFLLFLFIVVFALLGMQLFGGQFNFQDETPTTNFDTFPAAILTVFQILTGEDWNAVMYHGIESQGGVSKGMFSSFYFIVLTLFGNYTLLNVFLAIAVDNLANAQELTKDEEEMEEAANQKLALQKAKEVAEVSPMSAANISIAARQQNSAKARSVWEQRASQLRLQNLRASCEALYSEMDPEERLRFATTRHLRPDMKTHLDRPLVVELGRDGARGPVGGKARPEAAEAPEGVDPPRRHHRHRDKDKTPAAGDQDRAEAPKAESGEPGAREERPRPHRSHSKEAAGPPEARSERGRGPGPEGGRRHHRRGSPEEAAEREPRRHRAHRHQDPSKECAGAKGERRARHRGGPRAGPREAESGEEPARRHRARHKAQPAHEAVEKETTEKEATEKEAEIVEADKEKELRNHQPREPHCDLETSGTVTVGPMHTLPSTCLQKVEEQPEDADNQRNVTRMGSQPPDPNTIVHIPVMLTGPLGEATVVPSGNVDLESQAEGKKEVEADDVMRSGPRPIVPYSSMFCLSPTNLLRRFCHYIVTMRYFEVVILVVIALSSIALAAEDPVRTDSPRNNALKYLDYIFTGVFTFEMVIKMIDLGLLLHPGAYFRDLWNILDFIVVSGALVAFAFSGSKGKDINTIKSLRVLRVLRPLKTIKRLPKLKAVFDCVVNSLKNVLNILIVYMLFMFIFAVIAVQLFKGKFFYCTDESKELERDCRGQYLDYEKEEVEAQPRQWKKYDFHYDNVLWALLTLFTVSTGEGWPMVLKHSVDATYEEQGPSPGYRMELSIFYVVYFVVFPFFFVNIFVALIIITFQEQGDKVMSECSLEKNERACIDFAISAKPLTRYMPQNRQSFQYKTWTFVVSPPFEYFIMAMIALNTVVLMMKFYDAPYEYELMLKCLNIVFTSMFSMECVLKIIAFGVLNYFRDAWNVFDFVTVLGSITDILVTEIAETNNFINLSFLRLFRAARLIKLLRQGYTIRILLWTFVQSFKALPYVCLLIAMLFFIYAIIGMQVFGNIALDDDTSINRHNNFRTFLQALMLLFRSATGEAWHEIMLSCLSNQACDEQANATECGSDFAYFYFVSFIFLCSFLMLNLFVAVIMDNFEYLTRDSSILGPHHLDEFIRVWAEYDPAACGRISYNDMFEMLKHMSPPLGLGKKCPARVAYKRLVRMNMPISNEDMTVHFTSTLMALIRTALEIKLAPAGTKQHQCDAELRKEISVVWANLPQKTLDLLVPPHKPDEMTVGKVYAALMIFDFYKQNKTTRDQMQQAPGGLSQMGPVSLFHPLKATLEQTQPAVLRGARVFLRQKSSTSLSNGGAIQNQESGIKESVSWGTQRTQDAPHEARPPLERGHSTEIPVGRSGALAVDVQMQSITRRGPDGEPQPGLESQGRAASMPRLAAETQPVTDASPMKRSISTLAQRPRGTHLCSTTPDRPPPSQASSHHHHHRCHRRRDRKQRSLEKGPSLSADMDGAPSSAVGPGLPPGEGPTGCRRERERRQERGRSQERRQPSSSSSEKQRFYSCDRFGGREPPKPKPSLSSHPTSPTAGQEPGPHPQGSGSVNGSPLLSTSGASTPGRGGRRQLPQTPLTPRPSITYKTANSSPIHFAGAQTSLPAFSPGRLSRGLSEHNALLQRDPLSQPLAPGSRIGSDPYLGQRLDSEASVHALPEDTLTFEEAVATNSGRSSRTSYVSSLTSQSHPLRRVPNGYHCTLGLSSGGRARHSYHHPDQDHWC
T2 sequence (Q02410 whole entry): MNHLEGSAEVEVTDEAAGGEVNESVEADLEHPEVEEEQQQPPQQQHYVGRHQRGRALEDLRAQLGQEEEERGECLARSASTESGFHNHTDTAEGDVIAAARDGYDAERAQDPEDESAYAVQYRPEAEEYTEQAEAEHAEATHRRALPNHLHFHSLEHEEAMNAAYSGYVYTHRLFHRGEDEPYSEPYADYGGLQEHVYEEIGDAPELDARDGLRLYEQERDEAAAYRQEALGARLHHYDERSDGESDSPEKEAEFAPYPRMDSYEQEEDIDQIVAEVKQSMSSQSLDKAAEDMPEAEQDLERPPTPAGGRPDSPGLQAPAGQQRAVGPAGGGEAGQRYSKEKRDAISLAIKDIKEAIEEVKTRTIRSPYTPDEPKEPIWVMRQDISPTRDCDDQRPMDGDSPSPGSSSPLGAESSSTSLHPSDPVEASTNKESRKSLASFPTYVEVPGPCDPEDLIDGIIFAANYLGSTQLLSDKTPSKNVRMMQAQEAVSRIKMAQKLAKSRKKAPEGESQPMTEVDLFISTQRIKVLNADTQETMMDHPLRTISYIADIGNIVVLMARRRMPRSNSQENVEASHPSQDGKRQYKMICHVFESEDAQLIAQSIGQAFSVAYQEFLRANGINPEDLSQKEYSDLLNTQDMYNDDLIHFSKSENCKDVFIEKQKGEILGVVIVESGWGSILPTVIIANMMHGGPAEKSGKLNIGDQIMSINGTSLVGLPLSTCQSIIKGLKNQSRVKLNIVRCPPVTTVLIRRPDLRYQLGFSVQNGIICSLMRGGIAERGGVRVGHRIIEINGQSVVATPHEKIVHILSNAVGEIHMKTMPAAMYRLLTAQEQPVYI
Chain of Neurotensin receptor type 1 (P30989 whole entry): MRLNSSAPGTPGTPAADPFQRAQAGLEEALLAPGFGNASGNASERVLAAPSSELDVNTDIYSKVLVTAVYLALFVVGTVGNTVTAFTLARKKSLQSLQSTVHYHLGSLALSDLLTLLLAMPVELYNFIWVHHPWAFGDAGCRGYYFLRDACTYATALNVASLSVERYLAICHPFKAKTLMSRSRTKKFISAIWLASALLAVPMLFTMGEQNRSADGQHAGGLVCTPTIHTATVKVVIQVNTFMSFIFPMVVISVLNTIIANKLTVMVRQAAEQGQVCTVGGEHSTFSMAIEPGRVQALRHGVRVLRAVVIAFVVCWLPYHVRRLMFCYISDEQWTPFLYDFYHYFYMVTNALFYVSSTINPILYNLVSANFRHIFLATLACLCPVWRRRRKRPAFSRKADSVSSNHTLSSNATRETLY
Chain of NACHT, LRR and PYD domains-containing protein 3 (Q96P20 whole entry, the tested form may be a part): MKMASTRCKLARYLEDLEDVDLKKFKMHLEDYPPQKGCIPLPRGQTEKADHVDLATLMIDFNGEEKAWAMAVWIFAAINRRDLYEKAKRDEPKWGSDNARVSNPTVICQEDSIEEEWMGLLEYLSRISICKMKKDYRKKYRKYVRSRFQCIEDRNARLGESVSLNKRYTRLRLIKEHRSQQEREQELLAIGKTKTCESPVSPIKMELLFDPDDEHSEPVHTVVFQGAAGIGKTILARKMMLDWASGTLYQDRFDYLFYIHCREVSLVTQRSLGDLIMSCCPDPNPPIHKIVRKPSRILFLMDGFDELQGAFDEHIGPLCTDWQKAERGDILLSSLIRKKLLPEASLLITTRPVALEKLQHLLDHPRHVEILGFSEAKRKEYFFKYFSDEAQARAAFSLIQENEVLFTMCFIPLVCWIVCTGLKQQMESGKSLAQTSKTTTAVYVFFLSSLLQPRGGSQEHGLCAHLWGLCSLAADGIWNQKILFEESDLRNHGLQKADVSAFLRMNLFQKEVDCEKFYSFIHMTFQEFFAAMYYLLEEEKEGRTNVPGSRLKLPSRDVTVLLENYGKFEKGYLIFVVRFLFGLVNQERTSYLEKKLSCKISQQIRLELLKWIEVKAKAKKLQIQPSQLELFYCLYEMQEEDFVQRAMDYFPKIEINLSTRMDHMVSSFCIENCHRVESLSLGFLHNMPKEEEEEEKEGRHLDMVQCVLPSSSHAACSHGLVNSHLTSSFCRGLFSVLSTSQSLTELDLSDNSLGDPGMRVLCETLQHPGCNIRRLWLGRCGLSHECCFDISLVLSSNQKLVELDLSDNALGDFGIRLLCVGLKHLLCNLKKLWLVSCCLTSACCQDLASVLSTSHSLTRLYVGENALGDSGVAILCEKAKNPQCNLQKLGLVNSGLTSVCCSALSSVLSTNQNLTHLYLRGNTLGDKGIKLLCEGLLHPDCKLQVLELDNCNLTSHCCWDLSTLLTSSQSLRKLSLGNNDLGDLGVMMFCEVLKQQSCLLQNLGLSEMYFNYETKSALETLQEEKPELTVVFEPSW
Chain of Eukaryotic translation initiation factor 4E (P63073 whole entry): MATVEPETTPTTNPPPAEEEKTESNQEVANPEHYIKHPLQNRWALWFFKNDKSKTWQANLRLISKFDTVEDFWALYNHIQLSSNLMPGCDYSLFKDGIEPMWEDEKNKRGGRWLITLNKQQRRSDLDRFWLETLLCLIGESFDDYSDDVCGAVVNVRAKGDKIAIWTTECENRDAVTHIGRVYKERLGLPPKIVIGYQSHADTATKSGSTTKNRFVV

For `CC(C)N1C(=O)/C(=C\c2nc(O)c3ccccc3n2)c2ccccc21`, the AC50 [1] was 5.37 µM (active), the IC50 (Perilipin-1/ABHD5) was 6.84 µM (active) and the IC50 [2] was 7.59 µM (active).

In the case of `O=C(NCc1cc([N+](=O)[O-])ccc1O)c1cccnc1Sc1ccccc1Cl`, the EC50 [3] is reported as > 150 µM (inactive), the EC50 [4] is reported as > 150 µM (inactive) and the EC50 [5] is reported as > 180 µM (inactive). The CC50 [6] was > 100 µM (active) and the EC50 [7] was 0.848 µM (active).

In the case of `CCN1C(=O)/C(=C/N(C(C)=O)c2ccccc2)N(c2ccccc2)C1=S`, the EC50 [8] is reported as 18 µM (active) and the IC50 (Prothrombin) is reported as > 50 µM (not active).

For `CC(/C=C/c1ccco1)=NNC(=O)c1cccnc1`, the IC50 [9] was 6.99 µM (active) and the IC50 [10] was 21.4 µM (active).

With `COc1ccc(-n2c(Cc3cccn3C)nnc2SCC(=O)Nc2cccc(F)c2)cc1` the IC50 [11] was > 64 µM (inactive).

In the case of `S=C(Nc1cccnc1)Nc1cccc(Cl)c1`, the EC50 [12] is reported as 9.33 µM (active).

With `CCCS(=O)(=O)N1CCN(c2ccccc2F)CC1` the IC50 (Coagulation factor XII) was > 50 µM (inactive).

With `CC12CC3CC(C)(C1)CC(CN)(C3)C2` the IC50 [13] was > 300 µM (active).

In the case of `O=C(NNC(=O)c1ccccn1)c1cccc([N+](=O)[O-])c1`, the CC50 [14] is reported as 9.98 µM (active), the CC50 [15] is reported as > 20 µM (active) and the IC50 (cells) is reported as 10.9 µM (active). The CC50 [16] was 26.7 µM (active).

With `Cc1ccc(NC(=O)CNc2ccc(OC(C)C)cc2)cc1` the IC50 (Saccharomyces cerevisiae) was 42.6 µM (active) and the IC50 [17] was 22.6 µM (active).

For `COc1c(OC(C)=O)c(=O)n2c3ccccc3c3ccnc1c32`, the IC50 [18] was 1.58 µM (active).

With `CC(Oc1ccccc1)C(=O)Nc1nnc(-c2ccc(F)cc2)o1` (stereo not given) the EC50 [19] was 10 µM (active).

In the case of `O=C(C1CCCCN1Cc1ccc(Cl)c(Cl)c1)N1CCN(c2ccc([N+](=O)[O-])cc2)CC1` (stereo not given), the IC50 [20] is reported as 4.6 µM (active) and the IC50 [21] is reported as 2.3 µM (active).

In the case of `O=C(COc1ccc2ccccc2c1)N/N=C/c1ccc([N+](=O)[O-])o1`, the AC50 (Trypanosoma cruzi) is reported as 0.837 µM (active) and the AC50 [22] is reported as 22.3 µM (active).

For `C=CCc1cccc(/C=N/n2c(C)nnc2C)c1O`, the IC50 [23] was 8.19 µM (active) and the IC50 (Protein Rev) was > 8.39 µM (active).
